Laboratory results reported in US20150065499A1, “3-AMINOTHIENO[3,2-c]QUINOLINE DERIVATIVES, METHODS OF PREPARATION AND USES” (TEMPLE UNIVERSITY - OF THE COMMONWEALTH SYSTEM OF HIGHER …, priority 2012, published 2015).
Read-outs that look alike come from different tables or passages of the source.

What was measured:
[1] = tested on: K562 (chronic myelogenous leukemia; leukemia cell line +ve for Bcr-Abl); assay: Cancer cell assay, K562 tumor cells, viable cells after 96 hours; assay type: cell-based; conditions: Homo sapiens, 96 hours after treatment, called IC50
Protocol: (§1) The effect of the compounds of the invention on tumor cells was determined by the assay described by Latham et al., Oncogene 12:827-837 (1996). Tumor cells K562 (chronic myelogenous leukemia; leukemia cell line +ve for Bcr-Abl) or DU145 (prostate cancer) were plated in 12-well dishes at a cell density of 2.5×10^4 cells well. The plated cells were treated 24 hours later with a compound of the invention dissolved in DMSO at multiple concentrations ranging from 0.01 μM to 100 μM. The plates were examined 96 hours later under an inverted microscope, Olympus CK-2 using a 10× objective, and compound activity was noted by physical observation. When necessary, the total number of viable cells was determined by trypsinizing the wells and counting the number of viable cells, as determined by trypan blue exclusion, using a hemacytometer.

[2] = tested on: DU145 (prostate cancer); assay: Cancer cell assay, DU145 tumor cells, viable cells after 96 hours; assay type: cell-based; conditions: Homo sapiens, DU-145, 96 hours after treatment, called IC50
Protocol: as §1

[3] = biological target: T1, Human PI3Kα (p110α/p85α) (Homo sapiens, UniProt P42336); assay: PI3K isoform HTRF enzyme assay, PI3Kα; assay type: biochemical
T1 construct: N-terminal GST-tagged recombinant full-length human p110α; GST (N); host or cells: Baculovirus infected Sf9 cells
T1 sequence (P42336 whole entry, canonical isoform): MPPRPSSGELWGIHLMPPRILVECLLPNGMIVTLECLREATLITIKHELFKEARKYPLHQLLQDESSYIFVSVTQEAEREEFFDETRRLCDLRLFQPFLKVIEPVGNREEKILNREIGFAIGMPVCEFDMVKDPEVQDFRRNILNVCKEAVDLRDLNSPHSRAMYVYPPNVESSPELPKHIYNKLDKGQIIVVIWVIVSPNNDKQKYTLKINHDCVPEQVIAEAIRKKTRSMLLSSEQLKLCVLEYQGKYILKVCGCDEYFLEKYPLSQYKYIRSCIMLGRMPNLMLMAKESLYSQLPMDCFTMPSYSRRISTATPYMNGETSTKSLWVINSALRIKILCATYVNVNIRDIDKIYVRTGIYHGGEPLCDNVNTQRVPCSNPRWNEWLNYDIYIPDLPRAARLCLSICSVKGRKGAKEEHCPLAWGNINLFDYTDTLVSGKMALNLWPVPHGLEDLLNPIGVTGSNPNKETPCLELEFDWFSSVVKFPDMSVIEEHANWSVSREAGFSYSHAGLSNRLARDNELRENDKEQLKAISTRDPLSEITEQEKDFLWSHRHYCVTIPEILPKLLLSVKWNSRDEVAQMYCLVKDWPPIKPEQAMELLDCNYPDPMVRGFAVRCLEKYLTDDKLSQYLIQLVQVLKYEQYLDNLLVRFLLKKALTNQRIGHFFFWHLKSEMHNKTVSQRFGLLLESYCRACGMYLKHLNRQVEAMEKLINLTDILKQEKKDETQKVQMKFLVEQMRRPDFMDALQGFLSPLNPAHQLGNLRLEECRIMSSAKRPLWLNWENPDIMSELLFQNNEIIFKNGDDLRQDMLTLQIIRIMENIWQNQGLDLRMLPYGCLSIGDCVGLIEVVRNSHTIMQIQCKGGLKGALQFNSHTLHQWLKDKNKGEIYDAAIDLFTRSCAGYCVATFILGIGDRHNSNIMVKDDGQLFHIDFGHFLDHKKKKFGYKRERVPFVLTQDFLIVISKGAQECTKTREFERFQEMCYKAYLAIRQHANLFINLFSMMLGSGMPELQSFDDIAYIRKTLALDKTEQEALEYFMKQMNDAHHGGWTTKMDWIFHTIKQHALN
T1 sequence (P27986 whole entry partner, canonical isoform): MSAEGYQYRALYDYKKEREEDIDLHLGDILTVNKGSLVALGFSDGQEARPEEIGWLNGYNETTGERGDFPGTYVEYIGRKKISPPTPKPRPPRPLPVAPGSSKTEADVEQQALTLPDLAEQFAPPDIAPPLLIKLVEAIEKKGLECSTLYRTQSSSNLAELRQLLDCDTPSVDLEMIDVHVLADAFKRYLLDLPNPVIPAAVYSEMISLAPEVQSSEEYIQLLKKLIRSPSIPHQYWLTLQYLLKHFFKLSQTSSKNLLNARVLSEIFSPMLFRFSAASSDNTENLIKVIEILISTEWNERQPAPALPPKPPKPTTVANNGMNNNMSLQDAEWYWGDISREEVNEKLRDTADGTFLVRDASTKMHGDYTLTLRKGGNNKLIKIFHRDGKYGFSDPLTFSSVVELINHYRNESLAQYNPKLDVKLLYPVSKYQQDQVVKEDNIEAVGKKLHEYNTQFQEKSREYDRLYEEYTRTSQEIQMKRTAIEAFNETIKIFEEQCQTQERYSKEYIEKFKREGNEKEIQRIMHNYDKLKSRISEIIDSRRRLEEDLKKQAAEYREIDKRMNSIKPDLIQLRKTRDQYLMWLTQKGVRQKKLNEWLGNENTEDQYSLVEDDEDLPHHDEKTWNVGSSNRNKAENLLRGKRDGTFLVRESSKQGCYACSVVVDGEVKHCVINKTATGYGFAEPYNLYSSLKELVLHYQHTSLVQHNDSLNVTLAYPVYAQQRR
Protocol: (§2) The compound of Example 18, methyl 3-(4-fluorobenzamido)-7,8-dimethoxythieno[3,2-c]quinoline-2-carboxylate, was tested for ability to inhibit the four PI3K isoforms PI3Kα, PI3Kβ, PI3Kδ and PI3Kγ in a homogeneous time-resolved fluorescence (HTRF) enzyme assay.
(§3) The assay relies on the action of the aforesaid kinases on the substrate phosphatidylinositol (4,5)-bisphosphate (PIP2), providing the product phosphatidylinositol (3,4,5)-trisphosphate (PIP3). The PIP3 product is detected by displacement of biotin-PIP3 from an energy transfer complex consisting of Europium labeled anti-GST monoclonal antibody, a GST-tagged pleckstrin homology (PH) domain, biotinylated PIP3 and Streptavidin-Allophycocyanin (APC). Excitation of Europium in the complex results in an energy transfer to the APC and a fluorescent emission at 665 nm. The PIP3 product formed by PI 3-kinase(h) activity displaces biotin-PIP3 from the complex resulting in a loss of energy transfer and thus a decrease in signal. […]
(§4) The enzymes (PI3Kα, PI3Kβ, PI3Kδ or PI3Kγ) were delivered into the following kinase reaction buffer containing 10 μM PIP2 substrate: HEPES 50 mM (pH7.0), NaN3 0.02%, BSA 0.01%, Orthovanadate 0.1 mM, 1% DMSO. […] Homogeneous time-resolved fluorescence (HTRF) was measured (Ex=320 nm, ratio of Em=615 nm and Em=665 nm). […]

[4] = biological target: T2, Human PI3Kβ (p110β/p85α) (Homo sapiens, UniProt P42338); assay: PI3K isoform HTRF enzyme assay, PI3Kβ; assay type: biochemical
T2 construct: N-terminal 6His-tagged recombinant full-length human p110β; 6His (N); host or cells: Baculovirus infected Sf21 cells
T2 sequence (P42338 whole entry, canonical isoform): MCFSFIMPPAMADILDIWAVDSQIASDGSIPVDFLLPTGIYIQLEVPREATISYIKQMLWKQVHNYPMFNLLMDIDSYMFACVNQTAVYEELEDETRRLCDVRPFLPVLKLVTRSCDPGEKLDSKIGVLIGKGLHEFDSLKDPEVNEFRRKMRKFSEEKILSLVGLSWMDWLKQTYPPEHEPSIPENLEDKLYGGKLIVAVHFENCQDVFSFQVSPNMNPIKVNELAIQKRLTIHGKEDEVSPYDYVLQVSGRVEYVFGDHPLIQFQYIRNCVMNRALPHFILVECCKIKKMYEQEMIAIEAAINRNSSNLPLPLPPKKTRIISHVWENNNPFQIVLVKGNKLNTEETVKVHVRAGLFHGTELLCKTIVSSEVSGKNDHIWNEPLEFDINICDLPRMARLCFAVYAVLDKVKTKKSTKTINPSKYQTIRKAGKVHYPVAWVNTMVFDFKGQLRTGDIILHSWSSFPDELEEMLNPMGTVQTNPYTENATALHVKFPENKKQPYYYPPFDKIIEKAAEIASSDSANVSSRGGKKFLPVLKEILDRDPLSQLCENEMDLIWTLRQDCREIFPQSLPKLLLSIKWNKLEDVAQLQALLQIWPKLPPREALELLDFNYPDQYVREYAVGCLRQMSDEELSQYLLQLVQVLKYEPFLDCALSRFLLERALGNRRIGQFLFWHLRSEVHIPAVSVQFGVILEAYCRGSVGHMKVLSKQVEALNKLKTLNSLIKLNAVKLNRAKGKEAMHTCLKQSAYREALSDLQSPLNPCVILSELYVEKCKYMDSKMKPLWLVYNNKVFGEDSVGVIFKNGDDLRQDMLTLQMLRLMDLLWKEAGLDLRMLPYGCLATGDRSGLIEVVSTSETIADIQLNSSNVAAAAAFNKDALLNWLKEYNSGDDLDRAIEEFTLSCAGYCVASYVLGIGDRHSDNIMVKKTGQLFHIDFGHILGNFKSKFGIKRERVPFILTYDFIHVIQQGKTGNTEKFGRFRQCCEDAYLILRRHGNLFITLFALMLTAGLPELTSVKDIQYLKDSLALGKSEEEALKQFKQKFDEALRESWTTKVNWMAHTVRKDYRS
T2 sequence (P27986 whole entry partner, canonical isoform): as the sequence (P27986 whole entry partner, canonical isoform) above
Protocol: as §2, §3, §4

[5] = biological target: T3, Human PI3Kγ (p120γ) (Homo sapiens, UniProt P48736); assay: PI3K isoform HTRF enzyme assay, PI3Kγ; assay type: biochemical
T3 construct: His (N); host or cells: Baculovirus infected insect cells (printed 'SP)', probably a misprint of Sf9)
T3 sequence (P48736 whole entry, canonical isoform): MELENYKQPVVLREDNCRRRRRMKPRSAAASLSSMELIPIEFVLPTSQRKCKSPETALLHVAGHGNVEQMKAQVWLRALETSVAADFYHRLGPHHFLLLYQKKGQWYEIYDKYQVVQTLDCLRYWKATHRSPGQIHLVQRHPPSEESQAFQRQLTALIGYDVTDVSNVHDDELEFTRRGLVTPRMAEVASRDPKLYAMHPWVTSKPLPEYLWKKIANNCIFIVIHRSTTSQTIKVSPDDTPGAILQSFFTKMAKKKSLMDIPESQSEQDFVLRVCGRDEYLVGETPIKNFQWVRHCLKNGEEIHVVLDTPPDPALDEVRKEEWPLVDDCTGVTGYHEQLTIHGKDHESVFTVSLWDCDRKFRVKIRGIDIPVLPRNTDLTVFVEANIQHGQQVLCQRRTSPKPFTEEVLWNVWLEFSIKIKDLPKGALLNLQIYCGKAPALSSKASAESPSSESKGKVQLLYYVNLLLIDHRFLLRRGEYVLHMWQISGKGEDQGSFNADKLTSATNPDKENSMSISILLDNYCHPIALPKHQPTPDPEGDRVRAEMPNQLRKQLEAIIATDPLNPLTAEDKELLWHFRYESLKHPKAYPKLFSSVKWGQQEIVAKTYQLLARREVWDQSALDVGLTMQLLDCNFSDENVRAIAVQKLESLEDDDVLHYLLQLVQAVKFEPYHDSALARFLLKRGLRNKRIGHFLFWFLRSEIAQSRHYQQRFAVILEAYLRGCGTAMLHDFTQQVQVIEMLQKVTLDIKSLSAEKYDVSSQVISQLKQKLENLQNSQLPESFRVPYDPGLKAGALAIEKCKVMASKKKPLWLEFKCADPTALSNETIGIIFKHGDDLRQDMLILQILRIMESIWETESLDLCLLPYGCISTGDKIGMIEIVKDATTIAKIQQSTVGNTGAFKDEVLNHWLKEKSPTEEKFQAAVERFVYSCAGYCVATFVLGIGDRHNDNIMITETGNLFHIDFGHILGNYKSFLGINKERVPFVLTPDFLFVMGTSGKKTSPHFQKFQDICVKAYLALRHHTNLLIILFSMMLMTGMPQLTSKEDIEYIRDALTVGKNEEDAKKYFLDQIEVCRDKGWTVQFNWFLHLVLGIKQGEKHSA
Protocol: as §2, §3, §4

[6] = biological target: T4, Human PI3Kδ (p110δ/p85α) (Homo sapiens, UniProt O00329); assay: PI3K isoform HTRF enzyme assay, PI3Kδ; assay type: biochemical; conditions: for IC50: 10 μM PIP2, 10 μM ATP, HTRF, read-out: IC50 against PI3Kδ
T4 construct: N-terminal GST tagged recombinant full-length human p110δ; GST (N); host or cells: Baculovirus infected Sf9 cells
T4 sequence (O00329 whole entry, canonical isoform): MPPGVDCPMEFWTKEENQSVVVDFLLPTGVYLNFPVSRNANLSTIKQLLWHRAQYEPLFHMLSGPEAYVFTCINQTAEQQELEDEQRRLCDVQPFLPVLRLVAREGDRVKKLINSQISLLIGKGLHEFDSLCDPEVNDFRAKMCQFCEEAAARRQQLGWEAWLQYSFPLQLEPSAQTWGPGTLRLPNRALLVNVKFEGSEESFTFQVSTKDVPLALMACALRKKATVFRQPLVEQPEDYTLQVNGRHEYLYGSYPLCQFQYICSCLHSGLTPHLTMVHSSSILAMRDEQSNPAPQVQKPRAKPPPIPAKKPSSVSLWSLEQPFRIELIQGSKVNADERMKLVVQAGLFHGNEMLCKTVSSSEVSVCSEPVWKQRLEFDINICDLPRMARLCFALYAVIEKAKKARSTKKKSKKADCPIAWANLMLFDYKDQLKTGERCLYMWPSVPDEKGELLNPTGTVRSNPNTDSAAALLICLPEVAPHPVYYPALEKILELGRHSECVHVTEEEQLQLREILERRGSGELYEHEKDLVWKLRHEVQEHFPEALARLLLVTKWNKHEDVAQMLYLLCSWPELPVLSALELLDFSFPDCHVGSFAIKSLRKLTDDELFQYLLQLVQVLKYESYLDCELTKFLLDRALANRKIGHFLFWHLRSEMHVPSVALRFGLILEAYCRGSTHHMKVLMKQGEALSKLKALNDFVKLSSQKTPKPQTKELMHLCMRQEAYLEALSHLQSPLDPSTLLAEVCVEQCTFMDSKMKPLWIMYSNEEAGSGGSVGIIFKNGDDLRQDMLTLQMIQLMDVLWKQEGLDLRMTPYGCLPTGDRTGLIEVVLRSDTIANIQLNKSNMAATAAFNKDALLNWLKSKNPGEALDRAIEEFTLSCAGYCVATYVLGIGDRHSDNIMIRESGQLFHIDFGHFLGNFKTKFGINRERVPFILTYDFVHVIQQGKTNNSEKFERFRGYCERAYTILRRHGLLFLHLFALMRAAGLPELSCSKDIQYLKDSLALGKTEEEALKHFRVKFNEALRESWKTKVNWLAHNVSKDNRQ
T4 sequence (P27986 whole entry partner, canonical isoform): as the sequence (P27986 whole entry partner, canonical isoform) above
Protocol: as §2, §3, §4

Structure (SMILES)	IC50 [1] [µM]	IC50 [2] [µM]	melting point [°C]	other results
N#Cc1sc2c(cnc3ccc(F)cc32)c1N [Example 36, 3-Amino-8-fluorothieno[3,2-c]quinoline-2-carbonitrile]	75	75	> 300	
N#Cc1sc2c(cnc3cc(F)c(F)cc32)c1N [Example 38, 3-Amino-7,8-difluorothieno[3,2-c]quinoline-2-carbonitrile]	25	25	300 to 301	
Nc1c(C(=O)c2ccc(F)cc2)sc2c1cnc1cc(F)c(F)cc12 [Example 39, (3-Amino-7,8-difluorothieno[3,2-c]quinolin-2-yl)(4-fluorophenyl)methanone]	75	75	> 320	
COc1ccc(C(=O)c2sc3c(cnc4cc(F)c(F)cc43)c2N)cc1 [Example 40, (3-Amino-7,8-difluorothieno[3,2-c]quinolin-2-yl)(4-methoxyphenyl)methanone]	75	75	258 to 260	
O=c1cc(N2CCOCC2)oc2c(-c3ccccc3)cccc12 [LY294002, 2-(4-morpholinyl)-8-phenyl-chromone, reference compound]				IC50 [6]: 0.32 µM

More lines, main results first:

IC50 [1] [µM]	IC50 [2] [µM]	melting point [°C]	Structure (SMILES)	other results
0.15	2.5	196 to 198	COC(=O)c1sc2c(cnc3cc(OC)c(OC)cc32)c1NC(=O)c1ccc(F)cc1 [Example 18, Methyl 3-(4-fluorobenzamido)-7,8-dimethoxythieno[3,2-c]quinoline-2-carboxylate]	IC50 ([3]; 10 μM PIP2, 10 μM ATP, HTRF, read-out: IC50 against PI3Kα): 25.3 µM; inhibition of other isoforms of PI3K (PI3Kα), in words ([3]; Table 2): does not inhibit; IC50 ([4]; 10 μM PIP2, 10 μM ATP, HTRF, read-out: IC50 against PI3Kβ): 8.54 µM; inhibition of other isoforms of PI3K (PI3Kβ), in words ([4]; Table 2): does not inhibit; IC50 ([5]; 10 μM PIP2, 10 μM ATP, HTRF, read-out: IC50 against PI3Kγ): 1010 nM; IC50 ([5]; Table 2, read-out: IC50 against PI3Kγ isoform): 1000 nM; selective inhibition of the activity of PI3Kγ, in words ([5]; statement in description): selectively inhibits; IC50 [6]: 25.7 µM; inhibition of other isoforms of PI3K (PI3Kδ), in words ([6]; Table 2): does not inhibit
10	10	298 to 300	COC(=O)c1sc2c(cnc3cc(F)c(F)cc32)c1N [Example 35, Methyl 3-amino-7,8-difluorothieno[3,2-c]quinoline-2-carboxylate]	
0.15	5	276 to 278	Nc1c(C(=O)c2ccc(F)cc2)sc2c1cnc1ccc(F)cc12 [Example 37, (3-Amino-8-fluorothieno[3,2-c]quinolin-2-yl)(4-fluorophenyl)methanone]	
0.6	10	256 to 258	COc1ccc(C(=O)c2sc3c(cnc4ccc(F)cc43)c2N)cc1 [Example 41, (3-Amino-8-fluorothieno[3,2-c]quinolin-2-yl)(4-methoxyphenyl)methanone]	
